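Cultured in 96-well plates, cells were exposed to test compound for 48 hours across five concentrations. GI50 is the concentration that inhibits growth by half.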 The source made the active and inactive calls. Rule as the data show it: active = GI50 up to about 1.1 µM and inactive = higher.
Assays:
Experiment in all cases: inhibition of tumour cell growth, NCI panel, 48 h
OVCAR-5 = tested on: OVCAR-5
Malme-3M = tested on: Malme-3M
EKVX = tested on: EKVX
SF-539 = tested on: SF-539
RPMI-8226 = tested on: RPMI-8226
UACC-62 = tested on: UACC-62
RXF 393 = tested on: RXF 393
OVCAR-8 = tested on: OVCAR-8
M14 = tested on: M14
HOP-92 = tested on: HOP-92
HCT-116 = tested on: HCT-116
SNB-75 = tested on: SNB-75
SK-MEL-2 = tested on: SK-MEL-2
K562 = tested on: K562
SK-OV-3 = tested on: SK-OV-3
NCI-H460 = tested on: NCI-H460
NCI/ADR-RES = tested on: NCI/ADR-RES
SF-295 = tested on: SF-295
DU-145 = tested on: DU-145
SW-620 = tested on: SW-620

Row | SMILES | GI50 (OVCAR-5) | GI50 (Malme-3M) | GI50 (EKVX) | GI50 (SF-539) | GI50 (RPMI-8226) | GI50 (UACC-62) | GI50 (RXF 393) | GI50 (OVCAR-8) | GI50 (M14) | GI50 (HOP-92) | GI50 (HCT-116) | GI50 (SNB-75) | GI50 (SK-MEL-2) | GI50 (K562) | GI50 (SK-OV-3) | GI50 (NCI-H460) | GI50 (NCI/ADR-RES) | GI50 (SF-295) | GI50 (DU-145) | GI50 (SW-620)
1 | N#CSc1[nH]cnc1C(N)=O | > 100 µM (inactive) | 17.4 µM (inactive) | > 100 µM (inactive) | 77.3 µM (inactive) | 4.22 µM (inactive) | 79.6 µM (inactive) | > 100 µM (inactive) | > 100 µM (inactive) | 62.7 µM (inactive) | > 100 µM (inactive) | 60 µM (inactive) | > 100 µM (inactive) | > 100 µM (inactive) | 20 µM (inactive) | > 100 µM (inactive) | > 100 µM (inactive) | > 85.5 µM (inactive) | > 100 µM (inactive) | > 100 µM (inactive) | 90.6 µM (inactive)
2 | CCOC(=O)C1(C(=O)OCC)C[C@H](C)[C@](C)(O)C1 | > 100 µM (inactive) | > 100 µM (inactive) | > 100 µM (inactive) | > 100 µM (inactive) | > 100 µM (inactive) | > 100 µM (inactive) | > 100 µM (inactive) | > 100 µM (inactive) | > 100 µM (inactive) | > 100 µM (inactive) | > 100 µM (inactive) | > 100 µM (inactive) | > 100 µM (inactive) | > 100 µM (inactive) | > 100 µM (inactive) | > 100 µM (inactive) | > 100 µM (inactive) | > 100 µM (inactive) | > 100 µM (inactive) | > 100 µM (inactive)
3 | Nc1ncnc2c1ncn2C(=O)NC12CC3CC(CC(C3)C1)C2 | > 100 µM (inactive) | > 100 µM (inactive) | > 100 µM (inactive) | > 100 µM (inactive) | > 100 µM (inactive) | > 100 µM (inactive) | > 100 µM (inactive) | > 100 µM (inactive) | > 100 µM (inactive) | > 100 µM (inactive) | > 100 µM (inactive) | 84.7 µM (inactive) | > 100 µM (inactive) | > 100 µM (inactive) | > 100 µM (inactive) | > 100 µM (inactive) | > 100 µM (inactive) | > 100 µM (inactive) | > 100 µM (inactive) | > 100 µM (inactive)
4 | CC(C)COC(c1ccc2c(c1)OCO2)C(C)Br (stereo not given) | 19.7 µM (inactive) | 17.1 µM (inactive) | 26.2 µM (inactive) | 23.3 µM (inactive) | 21.6 µM (inactive) | 31.7 µM (inactive) | 10.5 µM (inactive) | 30.2 µM (inactive) | 21.1 µM (inactive) | 21.7 µM (inactive) | 17.2 µM (inactive) | 23.1 µM (inactive) | 21.8 µM (inactive) | 46.7 µM (inactive) | 24.1 µM (inactive) | 20 µM (inactive) | 28.4 µM (inactive) | 20 µM (inactive) | 33.1 µM (inactive) | 28.9 µM (inactive)
5 | COC1C(O)=C2C(=O)O/C(C)=C/C=C/C=C/C=C\CC(c3ccccc3)NC(=O)\C=C/C=C\C=C\C=C\[C@@]2(C)[C@@H]1O (stereo not given in full) | 0.0234 µM (active) | < 0.0223 µM (active) | 0.0357 µM (active) | < 0.01 µM (active) | < 0.01 µM (active) | 0.0675 µM (active) | 0.0128 µM (active) | 0.0157 µM (active) | < 0.0371 µM (active) | < 0.01 µM (active) | < 0.01 µM (active) | < 0.01 µM (active) | < 0.0218 µM (active) | < 0.01 µM (active) | < 0.021 µM (active) | < 0.01 µM (active) | < 0.01 µM (active) | < 0.01 µM (active) | 0.0117 µM (active) | < 0.01 µM (active)
6 | O=S1(=O)OC(c2ccc(O)cc2)(c2ccc(O)cc2)c2ccccc21 [PHENOLSULFONPHTHALEIN] | > 100 µM (inactive) | > 100 µM (inactive) | > 100 µM (inactive) | > 100 µM (inactive) | > 100 µM (inactive) | > 100 µM (inactive) | > 100 µM (inactive) | > 100 µM (inactive) | > 100 µM (inactive) | > 100 µM (inactive) | > 100 µM (inactive) | > 100 µM (inactive) | > 100 µM (inactive) | > 100 µM (inactive) | > 100 µM (inactive) | > 100 µM (inactive) | > 100 µM (inactive) | > 100 µM (inactive) | > 100 µM (inactive) | > 100 µM (inactive)

From ChEMBL document CHEMBL1201862, “PubChem BioAssay data set” (2004)
